{"source": "patent US20240408071A1", "about": "“NOVEL COMBINATION OF SEROTONIN RECEPTOR (5-HTR2B) ANTAGONIST AND AN IMMUNOMODULATOR AND CHEMOTHERAPEUTIC DRUGS FOR INHIBITION OF CANCER” (NATIONAL CENTRE FOR CELL SCIENCE, priority 2021, published 2024)", "test_system": "MC38 tumor", "test": "CD31+ micro-blood vessel count in MC38 tumor sections (IHC, angiogenesis)", "assay_type": "in vivo, mice", "details": "MC38 tumor harvested after 20 days of tumor inoculation", "procedure": "FIG. 6 depicts that 5-HTR2B signalling in colon cancer affects cell proliferation and viability: Colon cancer MC38 cells were treated with serotonin (100 μM), 5-HTR2B agonist (BW-723C86; 50 μM), or 5-HTR2B antagonist (SB-215505; 50 μM) for 48 hours, and cell cycle analysis was performed by propidium iodide staining using flow cytometry. MC38 cells were also treated with a graded dose of 5-HTR2B agonist (BW-723C86) or serotonin. MTT assay was performed to measure cell viability. (A) After treatment with 5-HTR2B agonist BW-723C86, serotonin, or 5-HTR2B antagonist SB-215505, the relative cell cycle analysis is shown. (B) Relative cell viability data of MC38 cells following treatment of graded doses of 5-HTR2B agonist BW-723C86 or serotonin are shown. The data shown are representative of one of the three independent experiments. (C) MC38 tumor sections from the control tumor and 5-HTR2B antagonist treated tumor were stained for CD31 and the number of CD31^+ micro-blood vessels/mm^2 of tissue sections was counted and plotted to observe angiogenesis. […]\nFor fluorescence-based immunohistochemical staining, tissues were embedded in OCT tissue freezing media (Fisher Scientific) and stored at −80° C. […] The images were captured using Olympus FV3000 confocal microscope (Waltham, Massachusetts), and the images were analysed using Cellsens software (Olympus; Waltham, Massachusetts). […]"}
{"smiles": "CC(C)c1cc(-c2ccc(F)c3ccccc23)nc(N)n1", "note": "[RS-127445]", "values": [{"measurement": "number of CD31+ micro-blood vessels/mm^2 in the tumor area", "value": "reduced the number of micro-blood vessels/mm^2"}]}
